According to the supplement of paper PMC11061612:

Legend:
Assay in all cases: combination Emax (second highest fraction inhibited in the dose matrix, 72 h); higher = more inhibition; extreme values may be limits of the assay
[1] = system: PA-TU-8902 (Pancreatic Carcinoma)
Method in brief: (§1)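 Cell lines in DMEM/F12 or RPMI with 10% FBS were plated in 1536-well plates, held 24 hours at 37°C, 5% CO2, then given two-drug dose matrices for 72 hours (DMSO typically 0.2%). Viability was read by CellTiter-Glo 2.0 luminescence and scaled as inhibition from 0 (vehicle wells) to 1 (blank wells). Combination Emax is the second-highest inhibition in the matrix; Bliss excess is observed combination effect minus expected EA + EB − EA·EB, EA and EB being single-agent effects.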

[2] = system: DOK (Oral Cavity Carcinoma)
Method in brief: as §1

[3] = system: YT (Other Blood Carcinomas)
Method in brief: as §1

[4] = system: JHH-6 (Hepatocellular Carcinoma)
Method in brief: as §1

[5] = system: HLE (Hepatocellular Carcinoma)
Method in brief: as §1

[6] = system: SW948 (Colorectal Carcinoma)
Method in brief: as §1

[7] = system: MSTO-211H (Mesothelioma)
Method in brief: as §1

[8] = system: CS1 (Chondrosarcoma)
Method in brief: as §1

[9] = system: CAL-39 (Other Solid Carcinomas)
Method in brief: as §1

[10] = system: NCI-H1688 (Small Cell Lung Carcinoma)
Method in brief: as §1

[11] = system: SK-MEL-1 (Melanoma)
Method in brief: as §1

[12] = system: GDM-1 (Acute Myeloid Leukemia)
Method in brief: as §1

[13] = system: D-283MED (Other Solid Carcinomas)
Method in brief: as §1

[14] = system: HCC-827 (Lung Adenocarcinoma)
Method in brief: as §1

[15] = system: HCC1143 (Breast Carcinoma)
Method in brief: as §1

[16] = system: SNG-M (Endometrial Carcinoma)
Method in brief: as §1

[17] = system: EW-22 (Ewing's Sarcoma)
Method in brief: as §1

[18] = system: HuO9 (Osteosarcoma)
Method in brief: as §1

[19] = system: EFM-192A (Breast Carcinoma)
Method in brief: as §1

[20] = system: D-392MG (Glioblastoma)
Method in brief: as §1

Compound: COc1cc2ncnc(Nc3ccc(F)c(Cl)c3)c2cc1OCCCN1CCOCC1 [Gefitinib] + CC(C)n1c(=O)n(C)c2cnc3cc(F)c(-c4ccc(OCCCN5CCCCC5)nc4)cc3c21 [AZD1390] (first compound max 10 µM, 7x7, partner max 0.3 µM)
- combination Emax [1]: 0.14
- combination Emax [2]: 0.382
- combination Emax [3]: 0.185
- combination Emax [4]: 0.144
- combination Emax [5]: 0.101
- combination Emax [6]: 0.162
- combination Emax [7]: 0.0343
- combination Emax [8]: 0.201
- combination Emax [9]: 0.833
- combination Emax [10]: 0.233
- combination Emax [11]: 0.43
- combination Emax [12]: 0.131
- combination Emax [13]: 0.425
- combination Emax [14]: 0.766
- combination Emax [15]: 0.253
- combination Emax [16]: 0.229
- combination Emax [17]: 0.244
- combination Emax [18]: 0.12
- combination Emax [19]: 0.262
- combination Emax [20]: 0.084

Compound: CS(=O)(=O)CCNCc1ccc(-c2ccc3ncnc(Nc4ccc(OCc5cccc(F)c5)c(Cl)c4)c3c2)o1 [Lapatinib] + C[C@@H](Oc1cc(-c2cnn(C3CCNCC3)c2)cnc1N)c1c(Cl)ccc(F)c1Cl [Crizotinib] (first compound max 10 µM, 7x7, partner max 10 µM)
- combination Emax [1]: 0.775
- combination Emax [2]: 0.979
- combination Emax [3]: 0.939
- combination Emax [4]: 0.683
- combination Emax [5]: 0.537
- combination Emax [6]: 0.819
- combination Emax [7]: 0.263
- combination Emax [8]: 0.797
- combination Emax [9]: 1
- combination Emax [10]: 0.742
- combination Emax [11]: 0.954
- combination Emax [12]: 0.913
- combination Emax [13]: 0.985
- combination Emax [14]: 0.896
- combination Emax [15]: 0.875
- combination Emax [16]: 0.955
- combination Emax [17]: 0.887
- combination Emax [18]: 0.982
- combination Emax [19]: 0.878
- combination Emax [20]: 0.498

Compound: CC(=O)c1c(C)c2cnc(Nc3ccc(N4CCNCC4)cn3)nc2n(C2CCCC2)c1=O [Palbociclib] + CC1(C)CCC(CN2CCN(c3ccc(C(=O)NS(=O)(=O)c4ccc(NCC5CCOCC5)c([N+](=O)[O-])c4)c(Oc4cnc5[nH]ccc5c4)c3)CC2)=C(c2ccc(Cl)cc2)C1 [Venetoclax] (first compound max 10 µM, 7x7, partner max 1 µM)
- combination Emax [1]: 0.245
- combination Emax [2]: 0.126
- combination Emax [3]: 0.504
- combination Emax [4]: 0.227
- combination Emax [5]: 0.0796
- combination Emax [6]: 0.382
- combination Emax [7]: 0.0513
- combination Emax [8]: 0.354
- combination Emax [9]: 0.255
- combination Emax [10]: 0.0922
- combination Emax [11]: 0.242
- combination Emax [12]: 0.892
- combination Emax [13]: 0.668
- combination Emax [14]: 0.168
- combination Emax [15]: 0.129
- combination Emax [16]: 0.424
- combination Emax [17]: 0.347
- combination Emax [18]: 0.406
- combination Emax [19]: 0.165
- combination Emax [20]: 0.223

Compound: CC(=O)c1c(C)c2cnc(Nc3ccc(N4CCNCC4)cn3)nc2n(C2CCCC2)c1=O [Palbociclib] + Cc1c2c(nn1C)CSCc1cc(n(C)n1)CSc1cc(c3ccccc3c1)OCCCc1c(C(=O)O)n(C)c3c-2c(Cl)ccc13 [AZD5991] (first compound max 10 µM, 7x7, partner max 1 µM)
- combination Emax [1]: 0.283
- combination Emax [2]: 0.311
- combination Emax [3]: 1
- combination Emax [4]: 0.338
- combination Emax [5]: 0.211
- combination Emax [6]: 0.406
- combination Emax [7]: 0.144
- combination Emax [8]: 0.304
- combination Emax [9]: 0.409
- combination Emax [10]: 0.381
- combination Emax [11]: 0.262
- combination Emax [12]: 0.824
- combination Emax [13]: 0.797
- combination Emax [14]: 0.197
- combination Emax [15]: 0.287
- combination Emax [16]: 0.485
- combination Emax [17]: 0.515
- combination Emax [18]: 0.803
- combination Emax [19]: 0.436
- combination Emax [20]: 0.4

Compound: CC(=O)c1c(C)c2cnc(Nc3ccc(N4CCNCC4)cn3)nc2n(C2CCCC2)c1=O [Palbociclib] + Cn1cnc2c(F)c(Nc3ccc(Br)cc3Cl)c(C(=O)NOCCO)cc21 [Selumetinib] (first compound max 10 µM, 7x7, partner max 10 µM)
- combination Emax [1]: 0.416
- combination Emax [2]: 0.5
- combination Emax [3]: 0.606
- combination Emax [4]: 0.443
- combination Emax [5]: 0.143
- combination Emax [6]: 0.665
- combination Emax [7]: 0.137
- combination Emax [8]: 0.408
- combination Emax [9]: 0.775
- combination Emax [10]: 0.147
- combination Emax [11]: 0.83
- combination Emax [12]: 0.555
- combination Emax [13]: 0.582
- combination Emax [14]: 0.22
- combination Emax [15]: 0.295
- combination Emax [16]: 0.296
- combination Emax [17]: 0.25
- combination Emax [18]: 0.419
- combination Emax [19]: 0.169
- combination Emax [20]: 0.262

Compound: COc1cccc(OCCCN)c1-c1cc(Nc2cnc(C#N)cn2)n[nH]1 [Prexasertib] + C=CCn1c(=O)c2cnc(Nc3ccc(N4CCN(C)CC4)cc3)nc2n1-c1cccc(C(C)(C)O)n1 [AZD1775] (first compound max 1 µM, partner max 1 µM)
- combination Emax [1]: 0.605
- combination Emax [2]: 0.685
- combination Emax [3]: 0.971
- combination Emax [4]: 0.599
- combination Emax [5]: 0.881
- combination Emax [6]: 0.896
- combination Emax [7]: 0.875
- combination Emax [8]: 0.735
- combination Emax [9]: 0.694
- combination Emax [10]: 0.838
- combination Emax [11]: 0.605
- combination Emax [12]: 0.945
- combination Emax [13]: 1
- combination Emax [14]: 0.603
- combination Emax [15]: 0.925
- combination Emax [16]: 0.985
- combination Emax [17]: 0.866
- combination Emax [18]: 0.954
- combination Emax [19]: 0.416
- combination Emax [20]: 0.66
